Read-outs that look alike come from different tables or passages of the source.
Tests used:
[1] = target: Wee1 kinase (Homo sapiens, UniProt P30291); test: Wee1 Binding Assay (FRET)
Experimental: Wee 1 kinase was determined by using Fluorescence Resonance Energy Transfer (FRET) assay. […] The plate was shaken for 30 seconds, incubated for 60 min at RT, and recorded on fluorescence plate reader.

[2] = test system: H23 cells; test: H23 Cellular Proliferation Assay (CellTiter-Glo); type: cell-based; details: Homo sapiens, NCI-H23, 96 h, 4 days, read-out: H23 CTG IC50
Experimental: H23 Cellular Proliferation Assay
Cells were treated with compounds diluted in DMSO and a 9 point 5-fold serial dilutions. Plates were placed in 37° C., 5% CO2 for to incubate for 4 days. Before they were developed by adding 100 μL of CellTiter-Glo reagent (Promega) to the assay plate, plates were shaken briefly for 2 mins and allowed to incubate at rt for 10 mins. The plates are read with a M5e plate reader according to CellTiter-Glo protocol. The GraphPad Prism software is used to get IC50 values.

Chain of Wee1 kinase (P30291 whole entry): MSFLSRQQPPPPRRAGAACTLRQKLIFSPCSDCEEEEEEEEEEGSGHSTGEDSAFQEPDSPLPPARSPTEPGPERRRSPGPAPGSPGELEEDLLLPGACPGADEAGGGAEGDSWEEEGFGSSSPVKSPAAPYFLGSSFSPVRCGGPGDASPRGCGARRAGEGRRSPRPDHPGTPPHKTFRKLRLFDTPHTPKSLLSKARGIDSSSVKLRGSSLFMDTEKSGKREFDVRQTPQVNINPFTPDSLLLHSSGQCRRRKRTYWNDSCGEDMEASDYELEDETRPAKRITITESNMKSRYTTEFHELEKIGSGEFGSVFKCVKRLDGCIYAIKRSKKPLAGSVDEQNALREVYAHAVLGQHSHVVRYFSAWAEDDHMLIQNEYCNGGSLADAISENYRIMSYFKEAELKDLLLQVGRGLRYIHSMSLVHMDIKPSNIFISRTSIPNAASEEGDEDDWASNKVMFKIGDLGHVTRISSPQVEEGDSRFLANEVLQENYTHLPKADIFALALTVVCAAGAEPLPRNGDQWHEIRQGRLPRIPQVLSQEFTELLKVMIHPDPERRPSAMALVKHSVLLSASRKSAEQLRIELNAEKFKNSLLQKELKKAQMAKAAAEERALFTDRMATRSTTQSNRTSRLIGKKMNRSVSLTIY

IC50 [1] [nM] | IC50 ([1]; FRET, Wee1 kinase 2 nM, tracer 178 50 nM, 60 min at RT, read-out: Wee1 enzymatic IC50) [nM] | Compound | IC50 [2] [nM]
< 10 |  | C=CCn1c(=O)c2cnc(Nc3ccc(N4CCN(C)CC4)cc3)nc2n1-c1ccc2c(n1)[C@@H](O)CC2 (single isomer, unassigned) [Example 1A] | > 1000
< 10 |  | C=CCn1c(=O)c2cnc(Nc3ccc(N4CCN(C)CC4)cc3)nc2n1-c1ccc2c(n1)[C@H](O)CC2 (single isomer, unassigned) [Example 1B] | 
< 10 |  | C=CCn1c(=O)c2cnc(Nc3ccc(N4CCN(C)CC4)cc3)nc2n1-c1ccc2c(n1)[C@](O)(C(F)(F)F)CC2 (single isomer, unassigned) [Example 3A] | > 1000
< 10 |  | C=CCn1c(=O)c2cnc(Nc3ccc(N4CCN(C)CC4)cc3)nc2n1-c1ccc2c(n1)[C@@](O)(C(F)(F)F)CC2 (single isomer, unassigned) [Example 3B] | 100 to 1000
< 10 |  | C=CCn1c(=O)c2cnc(Nc3ccc(N4CCN(C)CC4)cc3)nc2n1-c1ccc2c(n1)[C@@](C)(O)CO2 (single isomer, unassigned) [Example 4A] | > 1000
< 10 |  | C=CCn1c(=O)c2cnc(Nc3ccc(N4CCN(C)CC4)cc3)nc2n1-c1ccc2c(n1)[C@](C)(O)CO2 (single isomer, unassigned) [Example 4B] | > 1000
 |  | C=CCn1c(=O)c2cnc(Nc3ccc(N4CCN(C)CC4)cc3)nc2n1-c1ccc2c(c1)[C@](O)(CC)CO2 (single isomer, unassigned) [Example 5A] | > 1000
 |  | C=CCn1c(=O)c2cnc(Nc3ccc(N4CCN(C)CC4)cc3)nc2n1-c1ccc2c(c1)[C@@](O)(CC)CO2 (single isomer, unassigned) [Example 5B] | 100 to 1000
 |  | C=CCn1c(=O)c2cnc(Nc3ccc(N4CCN(C)CC4)cc3)nc2n1-c1ccc2c(n1)[C@](O)(C(F)(F)F)CO2 (single isomer, unassigned) [Example 6A] | > 1000
 |  | C=CCn1c(=O)c2cnc(Nc3ccc(N4CCN(C)CC4)cc3)nc2n1-c1ccc2c(n1)[C@@](O)(C(F)(F)F)CO2 (single isomer, unassigned) [Example 6B] | 100 to 1000
< 10 |  | C=CCn1c(=O)c2cnc(Nc3ccc(N4CCN(C)CC4)cc3)nc2n1-c1ccc2c(n1)[C@](O)(CC)CC2 (single isomer, unassigned) [Example 9A] | 100 to 1000
 |  | C=CCn1c(=O)c2cnc(Nc3ccc(N4CCNCC4)c(C)c3)nc2n1-c1ccc2c(n1)[C@](O)(CC)CC2 (single isomer, unassigned) [Example 13A] | 100 to 1000
 |  | C=CCn1c(=O)c2cnc(Nc3ccc(N4CCNCC4)c(C)c3)nc2n1-c1ccc2c(n1)[C@@](O)(CC)CC2 (single isomer, unassigned) [Example 13B] | < 100
 |  | C=CCn1c(=O)c2cnc(Nc3ccc(N4CCN(C)CC4)cc3)nc2n1-c1ccc2c(n1)[C@](O)(C1CC1)CC2 (single isomer, unassigned) [Example 16A] | 100 to 1000
 |  | C=CCn1c(=O)c2cnc(Nc3ccc(N4CCN(C)[C@@H](C)C4)cc3)nc2n1-c1ccc2c(n1)[C@@](C)(O)CC2 (single isomer, unassigned) [Example 17A] | 100 to 1000
 |  | C=CCn1c(=O)c2cnc(Nc3ccc(N4CCN(C)[C@@H](C)C4)cc3)nc2n1-c1ccc2c(n1)[C@](C)(O)CC2 (single isomer, unassigned) [Example 17B] | 100 to 1000
 |  | C=CCn1c(=O)c2cnc(Nc3ccc(N4CCN(C)[C@H](C)C4)cc3)nc2n1-c1ccc2c(n1)[C@@](C)(O)CC2 (single isomer, unassigned) [Example 18A] | 100 to 1000
 |  | C=CCn1c(=O)c2cnc(Nc3ccc(N4CCN(C)[C@H](C)C4)cc3)nc2n1-c1ccc2c(n1)[C@](C)(O)CC2 (single isomer, unassigned) [Example 18B] | 100 to 1000
 |  | C=CCn1c(=O)c2cnc(Nc3ccc(N4CCN(C)C[C@@H]4C)cc3)nc2n1-c1ccc2c(n1)[C@@](C)(O)CC2 (single isomer, unassigned) [Example 19A] | > 1000
 |  | C=CCn1c(=O)c2cnc(Nc3ccc(N4CCN(C)C[C@@H]4C)cc3)nc2n1-c1ccc2c(n1)[C@](C)(O)CC2 (single isomer, unassigned) [Example 19B] | 100 to 1000
 |  | C=CCn1c(=O)c2cnc(Nc3ccc(N4CCN(C)C[C@H]4C)cc3)nc2n1-c1ccc2c(n1)[C@@](C)(O)CC2 (single isomer, unassigned) [Example 20A] | > 1000
 |  | C=CCn1c(=O)c2cnc(Nc3ccc(N4CCN(C)C[C@H]4C)cc3)nc2n1-c1ccc2c(n1)[C@](C)(O)CC2 (single isomer, unassigned) [Example 20B] | 100 to 1000

IC50 [1] [nM] | IC50 ([1]; FRET, Wee1 kinase 2 nM, tracer 178 50 nM, 60 min at RT, read-out: Wee1 enzymatic IC50) [nM] | Compound | IC50 [2] [nM]
 |  | C=CCn1c(=O)c2cnc(Nc3ccc(N4CCN(C)CC4)c(C)c3)nc2n1-c1ccc2c(c1)[C@@](C)(O)CC2 (single isomer, unassigned) [Example 23A] | 100 to 1000
 |  | C=CCn1c(=O)c2cnc(Nc3ccc(N4CCN(C)CC4)c(C)c3)nc2n1-c1ccc2c(c1)[C@](C)(O)CC2 (single isomer, unassigned) [Example 23B] | < 100
 |  | C=CCn1c(=O)c2cnc(Nc3ccc(N4CCN(C)CC4)cc3)nc2n1-c1cc(F)c2c(c1)[C@@](C)(O)CC2 (single isomer, unassigned) [Example 24A] | 100 to 1000
 |  | C=CCn1c(=O)c2cnc(Nc3ccc(N4CCN(C)CC4)cc3)nc2n1-c1cc(F)c2c(c1)[C@](C)(O)CC2 (single isomer, unassigned) [Example 24B] | 100 to 1000
 |  | C=CCn1c(=O)c2cnc(Nc3ccc(N4CCNCC4)cc3)nc2n1-c1ccc2c(n1)[C@@](C)(O)CCC2 (single isomer, unassigned) [Example 28A] | 100 to 1000
 |  | C=CCn1c(=O)c2cnc(Nc3ccc(N4CCNCC4)cc3)nc2n1-c1ccc2c(n1)[C@](C)(O)CCC2 (single isomer, unassigned) [Example 28B] | 100 to 1000
 |  | C=CCn1c(=O)c2cnc(Nc3ccc4c(c3)CNCC43CC3)nc2n1-c1ccc2c(n1)[C@@](C)(O)CCC2 (single isomer, unassigned) [Example 31A] | < 100
 |  | C=CCn1c(=O)c2cnc(Nc3ccc4c(c3)CNCC43CC3)nc2n1-c1ccc2c(n1)[C@](C)(O)CCC2 (single isomer, unassigned) [Example 31B] | < 100
 |  | C=CCn1c(=O)c2cnc(Nc3ccc(N4CCN(C)CC4)cc3)nc2n1-c1cc2c(cn1)CC[C@]2(C)O (single isomer, unassigned) [Example 37A] | > 1000
 |  | C=CCn1c(=O)c2cnc(Nc3ccc(N4CCN(C)CC4)cc3)nc2n1-c1cc2c(cn1)CC[C@@]2(C)O (single isomer, unassigned) [Example 37B] | > 1000
 |  | C=CCn1c(=O)c2cnc(Nc3ccc(N4CCN(C)CC4)cc3)nc2n1-c1ccc2c(n1)[C@](O)(C(C)(F)F)CC2 (single isomer, unassigned) [Example 38A] | > 1000
 |  | C=CCn1c(=O)c2cnc(Nc3ccc(N4CCN(C)CC4)cc3)nc2n1-c1ccc2c(n1)[C@@](O)(C(C)(F)F)CC2 (single isomer, unassigned) [Example 38B] | 100 to 1000
 |  | C=CCn1c(=O)c2cnc(Nc3ccc4c(ccn4C4CCN(C)CC4)c3)nc2n1-c1ccc2c(n1)[C@](O)(CC)CC2 (single isomer, unassigned) [Example 39A] | 100 to 1000
 |  | C=CCn1c(=O)c2cnc(Nc3ccc4c(ccn4C4CCN(C)CC4)c3)nc2n1-c1ccc2c(n1)[C@@](O)(CC)CC2 (single isomer, unassigned) [Example 39B] | 100 to 1000
 |  | C=CCn1c(=O)c2cnc(Nc3ccc(C4=CCN(C)CC4)c(C)c3)nc2n1-c1ccc2c(n1)[C@](O)(CC)CC2 (single isomer, unassigned) [Example 40A] | 100 to 1000
 |  | C=CCn1c(=O)c2cnc(Nc3ccc(C4=CCN(C)CC4)c(C)c3)nc2n1-c1ccc2c(n1)[C@@](O)(CC)CC2 (single isomer, unassigned) [Example 40B] | < 100
 |  | C=CCn1c(=O)c2cnc(Nc3ccc(N4CCN(C)CC4)cc3)nc2n1-c1ccc2c(n1)[C@@](C)(NC(C)=O)CCC2 (single isomer, unassigned) [Example 41A] | > 1000
 |  | C=CCn1c(=O)c2cnc(Nc3ccc(N4CCN(C)CC4)cc3)nc2n1-c1ccc2c(n1)[C@](C)(NC(C)=O)CCC2 (single isomer, unassigned) [Example 41B] | > 1000
 |  | C=CCn1c(=O)c2cnc(Nc3ccc(N4CCN(C)CC4)cc3)nc2n1-c1cccc(C(C)(C)O)n1 [AZD1775, 2-allyl-1-(6-(2-hydroxypropan-2-yl)pyridin-2-yl)-6-(4-(4-methylpiperazin-1-yl)phenylamino)-1,2-dihydropyrazolo[3,4-d]pyrimidin-3-one, reference compound] | 100 to 1000
 |  | C=CCn1c(=O)c2cnc(Nc3ccc(N4CCNCC4)cc3)nc2n1-c1ccc2c(n1)[C@@](O)(CC)CC2 [Example 14, (R)-2-allyl-1-(7-ethyl-7-hydroxy-6,7-dihydro-5H-cyclopenta[b]pyridin-2-yl)-6-((4-(piperazin-1-yl)phenyl)amino)-1,2-dihydro-3H-pyrazolo[3,4-d]pyrimidin-3-one] | 100 to 1000
 | < 10 | C=CCn1c(=O)c2cnc(Nc3ccc(N4CCN(C)CC4)cc3)nc2n1-c1ccc2c(n1)C(=O)NC2 [Example 34, 2-allyl-6-((4-(4-methylpiperazin-1-yl)phenyl)amino)-1-(7-oxo-6,7-dihydro-5H-pyrrolo[3,4-b]pyridin-2-yl)-1,2-dihydro-3H-pyrazolo[3,4-d]pyrimidin-3-one] | 

Compound | IC50 [1] [nM] | IC50 ([1]; FRET, Wee1 kinase 2 nM, tracer 178 50 nM, 60 min at RT, read-out: Wee1 enzymatic IC50) [nM] | IC50 [2] [nM]
C=CCn1c(=O)c2cnc(Nc3ccc(N4CCN(C)CC4)cc3)nc2n1-c1ccc2c(n1)[C@@](C)(O)CC2 (single isomer, unassigned) [Example 2A] | < 10 |  | > 1000
C=CCn1c(=O)c2cnc(Nc3ccc(N4CCN(C)CC4)cc3)nc2n1-c1ccc2c(n1)[C@](C)(O)CC2 (single isomer, unassigned) [Example 2B] | < 10 |  | 100 to 1000
